These are literature values, as cited in article PMC10056485 (International Journal of Molecular Sciences, 2023).

SMILES strings stand for the structures. Read-outs that look alike come from different tables or passages of the source.

The conditions of series [1]: cited from earlier work.
Details of series [2]: method as in PMID 32533042. Particulars: cited from earlier work; for Complete recanalization rate: p = 0.014.

For the compound `COc1cc2nccc(Oc3ccc(NC(=O)NC4CC4)c(Cl)c3)c2cc1C(N)=O` [lenvatinib], the “Increase of AUC of lenvatinib” value in series [1] (sequential RT9Gyx3f'x group) is on record as 2 fold.

Turning to `CNC(=O)c1cc(Oc2ccc(NC(=O)Nc3ccc(Cl)c(C(F)(F)F)c3)c(F)c2)ccn1` [regorafenib], the “Increase of AUC of regorafenib” value in series [1] (sequential RT9Gyx3f'x group) is recorded as 1.3 fold.

With `CNC(=O)c1cc(Oc2ccc(NC(=O)Nc3ccc(Cl)c(C(F)(F)F)c3)cc2)ccn1` [sorafenib], the “Increase of AUC of sorafenib” value in series [1] (concurrent RT9Gy groups) is listed as 4 fold; in series [1] (sequential RT9Gy group), 1.6 fold. The “Complete recanalization rate, SBRT relative to conventional RT” value in series [2] (SBRT with sorafenib versus conventional RT) was 3 fold. In addition, the Complete recanalization rate in series [2] (SBRT with sorafenib) is recorded as 28%; in series [2] (conventional RT with sorafenib) it was 8%.
